2 compounds from patent US20230390396A1, “COMPOSITION CONTAINING 5-AMINOLEVULINIC ACID HYDROCHLORIDE” (priority 2020, published 2023) can be followed below.

The nature of assay [1]: Antioxidative activity (DPPH radical scavenging, modified Blois method). The settings on record: 2 mL sample + 2 mL 0.2 mM DPPH, 30 minutes, absorbance at 517 nm. Here is the method: Radical scavenging activity was used using the cosmetic composition for acne skin improvement according to the example as a sample.
The antioxidative activity (electron donation ability, EDA %) of a sample was measured by modifying the Blois method. 2 mL of the sample was mixed with 2 mL of a 0.2 mM DPPH(1,1-diphenyl-2-picryl hydrazyl) solution, and then allowed to stand for 30 minutes, followed by measuring an absorbance at 517 nm.
The radical scavenging activity was expressed as the rate of decrease in absorbance between the sample-added group and the non-added group. The radical scavenging activity was calculated according to the following equation, and results are summarized in [Table 2] below. As a sample for the control, BHT (synthetic antioxidant) was used.
Radical scavenging activity (%)=(1−Absorbance of sample-added group/Absorbance of non-added group)×100
Background: The DPPH test is a chemical assay of radical scavenging.

Assay [2] relates to patient's brain tumor area. Nature of the assay: Fluorescence visualization of brain tumor after drinking 5-aminolevulinic acid hydrochloride. The class given is in vivo, human. Conditions: 19 mg/kg oral, 3 hours before induction of anesthesia, operation 6 hours after drinking; FIG. 1.

Turning to `Cc1cc(C(C)(C)C)c(O)c(C(C)(C)C)c1` [Control, BHT], in assay [1], the Radical scavenging activity came out at 55.3 ± 0.45%.
For the compound `Cl.NCC(=O)CCC(=O)O` [5-aminolevulinic acid hydrochloride], the “Fluorescence of patient's brain tumor area at surgery” value in assay [2] is given as “emitting a fluorescent color”.
